Laboratory results reported in US20230416293A1, “SYNTHESIS OF [18F]-LABELED THYMIDINE ANALOGUES” (UNIVERSITY OF SOUTHERN CALIFORNIA, priority 2020, published 2023).
One block for each molecule: values may come before it.

How the values were obtained:
[1] = 1-octanol/PBS partition coefficient (Log P); assay type: physicochemical; conditions: for Partition coefficients of 1-octanol/PBS: room temperature, PBS pH 7.4, quintuplicate
MDA-MB-231 tumor = assay: microPET imaging of subcutaneous MDA-MB-231 tumor-bearing nude mice; assay type: in vivo; conditions: MDA-MB-231 tumor model; for tumor uptake: intravenous, n=3
Experimental: (§1) After the intravenous injection of [^18F]FMAU at 1 h and 2 h, the mice (n=3/group) were scanned through a microPET imaging system. […] For microPET scans, radioactivity accumulations in tumors and major tissues/organs were quantified by calculating the ROIs that comprised the entire organ on the coronal images.
(§2) Tumor cells were cultured in Dulbecco's Modified Eagle Medium (DMEM) supplemented with 10% fetal bovine serum at 37° C. in a humidified incubator containing 5% CO2.
(§3) Both MDA-MB-231 and U-87 MG tumor xenograft models (n=3/group) were generated by subcutaneous injection of 5×10^6 tumor cells into the front right flank of female athymic nude mice (4-6 weeks old) purchased from Envigo Inc., Indianapolis, IN. The tumors were permitted to grow 2-4 weeks until approximate 0.6-0.8 cm^3 in volume.
(§4) MicroPET scans were carried out using a rodent scanner (Siemens Inveon microPET scanner, Siemens Medical Solutions). About 7.4 MBq (200 μCi) of [^18F]FMAU was injected through the tail vein under isoflurane anesthesia condition. Five-minute static scans were obtained at 60- and 120-min post-injection (p.i.). The 3D-OSEM algorithm was applied for image reconstruction. For each microPET scan, the regions of interest (ROIs) were drawn over tumor, muscle, liver, and kidneys on the decay-corrected whole-body coronal images. The tumor-to-muscle (T/M), tumor-to-liver (T/L), and tumor-to-kidney (T/K) ratios were then calculated.

U-87 MG tumor = assay: microPET imaging of subcutaneous U-87 MG tumor-bearing nude mice; assay type: in vivo; conditions: U-87 MG tumor model; for tumor uptake: intravenous, n=3
Experimental: as §1, §2, §3, §4

[2] = 1-octanol/PBS pH 7.4, room temperature, quintuplicate

- Log P [1, 2]: −0.108±0.013
- Partition coefficients of 1-octanol/PBS [1]: 0.780 ± 0.024
SMILES: O=c1[nH]c(=O)n([C@@H]2O[C@H](CO)[C@@H](O)[C@@H]2[18F])cc1I [[^18F]FIAU, 2′-deoxy-2′-[^18F]fluoro-5-iodo-1-β-D-arabinofuranosyluracil]

- Log P [1, 2]: −0.477±0.030
- Partition coefficients of 1-octanol/PBS [1]: 0.334 ± 0.022
SMILES: O=c1[nH]c(=O)n([C@@H]2O[C@H](CO)[C@@H](O)[C@@H]2[18F])cc1Cl [[^18F]FCAU, 2′-deoxy-2′-[^18F]fluoro-5-chloro-1-β-D-arabinofuranosyluracil]

- Log P [1, 2]: −0.943±0.041
- Partition coefficients of 1-octanol/PBS [1]: 0.114 ± 0.011
SMILES: O=c1ccn([C@@H]2O[C@H](CO)[C@@H](O)[C@@H]2[18F])c(=O)[nH]1 [[^18F]FAU, 2′-Deoxy-2′-[^18F]fluoro-1-β-D-arabinofuranosyluracil]

- Log P [1, 2]: −0.577±0.003
- Partition coefficients of 1-octanol/PBS [1]: 0.265 ± 0.002
- ratio of tumor uptake to kidney uptake (T/K) (MDA-MB-231 tumor; 1 h p.i.): 1.9±0.5
- ratio of tumor uptake to liver uptake (T/L) (MDA-MB-231 tumor; 1 h p.i.): 2.1±0.2
- ratio of tumor uptake to muscle uptake (T/M) (MDA-MB-231 tumor; 1 h p.i.): 2.8±0.3
- tumor uptake (MDA-MB-231 tumor; 1 h p.i.): 6.4±0.4 % ID/g
- ratio of tumor uptake to kidney uptake (T/K) (MDA-MB-231 tumor; 2 h p.i.): 1.9±0.5
- ratio of tumor uptake to liver uptake (T/L) (MDA-MB-231 tumor; 2 h p.i.): 2.5±0.2
- ratio of tumor uptake to muscle uptake (T/M) (MDA-MB-231 tumor; 2 h p.i.): 3.2±0.7
- tumor uptake (MDA-MB-231 tumor; 2 h p.i.): 7.2±0.6 % ID/g
- ratio of tumor uptake to kidney uptake (T/K) (U-87 MG tumor; 1 h p.i.): 1.4±0.2
- ratio of tumor uptake to liver uptake (T/L) (U-87 MG tumor; 1 h p.i.): 1.4±0.3
- ratio of tumor uptake to muscle uptake (T/M) (U-87 MG tumor; 1 h p.i.): 1.8±0.2
- tumor uptake (U-87 MG tumor; 1 h p.i.): 6.0±0.2 % ID/g
- ratio of tumor uptake to kidney uptake (T/K) (U-87 MG tumor; 2 h p.i.): 1.3±0.1
- ratio of tumor uptake to liver uptake (T/L) (U-87 MG tumor; 2 h p.i.): 1.5±0.3
- ratio of tumor uptake to muscle uptake (T/M) (U-87 MG tumor; 2 h p.i.): 1.9±0.3
- tumor uptake (U-87 MG tumor; 2 h p.i.): 5.6±0.4 % ID/g
SMILES: Cc1cn([C@@H]2O[C@H](CO)[C@@H](O)[C@@H]2[18F])c(=O)[nH]c1=O [[^18F]FMAU, 2′-Deoxy-2′-[^18F]fluoro-5-methyl-1-β-D-arabinofuranosyluracil]

- logP [1, 2]: -0.367 ± 0.025
SMILES: O=c1[nH]c(=O)n([C@@H]2O[C@H](CO)[C@@H](O)[C@@H]2F)cc1Br [[^18F]FBAU, 1-(2-deoxy-2-fluoro-β-D-arabinofuranosyl)-5-bromouracil]

- Log P [1, 2]: −0.952±0.023
- Partition coefficients of 1-octanol/PBS [1]: 0.113 ± 0.006
SMILES: O=c1[nH]c(=O)n([C@@H]2O[C@H](CO)[C@@H](O)[C@@H]2[18F])cc1F [[^18F]FFAU, 2′-deoxy-2′-[^18F]fluoro-5-fluoro-1-β-D-arabinofuranosyluracil]

- Log P [1, 2]: −0.077±0.018
- Partition coefficients of 1-octanol/PBS [1]: 0.837 ± 0.035
SMILES: CCc1cn([C@@H]2O[C@H](CO)[C@@H](O)[C@@H]2[18F])c(=O)[nH]c1=O [[^18F]FEAU, 2′-deoxy-2′-[^18F]fluoro-5-ethyl-1-β-D-arabinofuranosyluracil]
